In paper PMC12373846, “Hemoglobin as a pseudoperoxidase and drug target for oxidative stress-related diseases” (Signal Transduction and Targeted Therapy, 2025):

Experiments:
[1] = tested on: CAT; experiment: ROS-Glo H2O2 assay with CAT; assay type: biochemical
Description: Hb (Sigma‒Aldrich, H7379), H2O2 (Sigma‒Aldrich, H1009), and Amplex Red reagents (Invitrogen, A12222) were obtained for the study. A 4 μM H2O2 solution was prepared in 50 mM sodium phosphate buffer (pH 7.2). Then, 49 μl of this mixture was mixed with 1 μl of the test compound in DMSO or distilled water. The mixture was combined with an assay mixture of Amplex Red reagent (20 mM stock to 0.1 mM) and HRP (200 U/ml stock to 0.2 U/ml) and added to the wells at 50 μl/well. After a 60-min incubation at 37 °C, resorufin production was quantified via a microplate fluorescence reader (SpectraMax iD5, Molecular Devices) at ex/em = 535/580 nm. The H2O2-decomposing activity was estimated via the following equation: (sample fluorescence-blank fluorescence)/(control […]-blank fluorescence) × 100. For the ROS-Glo assay, the H2O2 substrate solution and ROS-Glo detection solution were prepared according to the manufacturer’s instructions. 10 μM H2O2 and drugs were prepared as in the Amplex Red assay, with HRP, Hb, CAT, or GPx added as needed. […] Luminescence was measured via iD5 microplate readers. The H2O2-decomposing activity was estimated via the following equation: (sample luminescence-blank luminescence)/(control luminescence-blank luminescence) × 100. The U/ml was calculated on the basis of the amount of H2O2 reduced by Hb during the reaction, using μg/ml and U/mg.

[2] = tested on: A53T mice; experiment: Immunohistochemistry of SNpc, A53T mice; assay type: in vivo, mouse; settings: for mean GABA intensity in GFAP-positive areas: Fig. 4k; for TH-positive neuron counts per hemisphere: Fig. 4l
Description: Stereotaxic injections were performed to deliver the AAV-CMV-A53T virus or PBS (control) into the right SNpc (AP, −3.2 mm; ML, −1.3 mm; DV, −4.0 mm from the bregma) of the mice. The injections were administered at a rate of 0.2 μl/min, with a total volume of 1 μl. The procedure was conducted under general anesthesia induced by 1% isoflurane.
The mice were deeply anesthetized with 2% isoflurane and positioned on the operating table. After the abdomen was opened and the heart was exposed, the […] were perfused with saline, followed by 4% paraformaldehyde (PFA) in 0.1 M PBS. The mice were decapitated, and the brains were excised from the skull. Excised brains were postfixed in 4% PFA overnight at 4 °C and dehydrated in 30% sucrose for 48 h. Coronal hippocampal sections were cut at 30 µm thickness with a cryostat and stored in storage solution. For the ALS experiments, lumbar spinal cords (L2–L5) were also carefully dissected and immediately immersed in 4% PFA for postfixation. The sections were fully washed in 0.1 M PBS and incubated for 1 h in blocking solution (0.3% Triton X-100, 2% donkey and goat serum in 0.1 M PBS). Next, a mixture of primary antibodies in the blocking solution was used for immunostaining on a shaker overnight at 4 °C. The sections were washed in PBS three times. After washing, the sections were incubated with the corresponding fluorescent secondary antibodies for 1 h at RT. DAPI staining was performed by adding a DAPI solution (1:2000) during the second washing step. After the washing step was complete, the sections were mounted on cover slides with mounting medium. A series of fluorescence images were obtained with an LSM900 (Zeiss, Germany) confocal microscope or Lattice SIM Elyra 7 (Zeiss, Germany). The 15–22 μm Z stack images in 1–2 μm steps were processed for image analysis, which was performed via the ImageJ (NIH, US) and ZEN digital imaging for light microscopy blue system (Zeiss, Germany) programs. The primary antibodies used were as follows: chicken anti-GFAP (1:500, Millipore, ab5541), rabbit anti-amyloid beta (1:500, Abcam, ab2539), mouse anti-NeuN (1:200, Millipore, ab377), rabbit anti-Hbβ (1:200, Abcam, ab214049), mouse anti-Hbβ (1:200, Santacruz, sc-21757), mouse anti-MAOB (1:200, Santacruz, sc-515354), mouse anti-8-OhdG (1:500, Santacruz, sc-393871), rabbit anti-TH (1:500, Pelfreez, p40101), and mouse anti-TH (1:200, Sigma, T2928). The following secondary antibodies from Jackson were diluted (1:500) in blocking solution: donkey-anti-chicken 405, donkey-anti-chicken 647, donkey-anti-rabbit 488, donkey-anti-rabbit 594, donkey-anti-rabbit 647, donkey-anti-guinea pig 488, donkey-anti-guinea pig 647, donkey-anti-mouse 594, and donkey-anti-mouse 647. Serial confocal sections immunolabeled with GFAP were compiled into a maximal projection to assess the GFAP signal within the hippocampus (Z-stacked images, 15–22 μm Z stack images in 1–2 μm steps of brain sections). Sholl analysis, performed via the ImageJ plugin, automatically generated concentric circles with 10-μm spacing from the nucleus (soma) to the farthest astrocytic process. This analysis quantified the intersections of GFAP-labeled processes within each circle, calculating the ramification index and ending radius, enabling the evaluation of astrocytic hypertrophy and morphological changes, as previously described.[78] In the focal GiD mouse model, NeuN-positive CA1 pyramidal neurons were quantified within a 50 × 50 μm^2 region via ImageJ to determine the number of CA1 pyramidal neurons.
For the SNpc, astrocytes and dopaminergic neurons were analyzed separately. The SNpc region was manually reconstructed using anatomical landmarks and TH or GFAP signals. GFAP-positive astrocyte surfaces were reconstructed with surface details set to 0.6 μm, the diameter of the largest sphere at 2.0 μm, a manual threshold value minimum of 800, and diffusion transparency set to 60%. […]

Structure (SMILES)	effect on CAT activity [1]	mean intensity of Hbβ in GFAP-positive areas ([2]; A53T contra+KDS12025, Fig. 5p)	mean intensity of Hbβ in TH-positive areas ([2]; A53T contra+KDS12025, Fig. 5q)	mean intensity of GFAP in GFAP-positive area ([2]; A53T contra+KDS12025, Fig. S12c)	GFAP-positive area in the SNpc ([2]; A53T contra+KDS, Fig. 4j)	mean GABA intensity in GFAP-positive areas ([2]; A53T contra+KDS)	TH-positive neuron counts per hemisphere ([2]; A53T contra+KDS)	mean intensity of Hbβ in GFAP-positive areas ([2]; A53T ipsi+KDS12025, Fig. 5p)	mean intensity of Hbβ in TH-positive areas ([2]; A53T ipsi+KDS12025, Fig. 5q)	mean intensity of GFAP in GFAP-positive area ([2]; A53T ipsi+KDS12025, Fig. S12c)	GFAP-positive area in the SNpc ([2]; A53T ipsi+KDS, Fig. 4j)	mean GABA intensity in GFAP-positive areas ([2]; A53T ipsi+KDS)	TH-positive neuron counts per hemisphere ([2]; A53T ipsi+KDS)	GFAP-positive area in the SNpc ([2]; A53T+shHbβ::CaMKII+KDS12025, Fig. 6r)	number of TH-positive neurons per hemisphere ([2]; A53T+shHbβ::CaMKII+KDS12025, Fig. 6s)	GFAP-positive area in the SNpc ([2]; A53T+shHbβ::GFAP+KDS12025, Fig. 6r)	number of TH-positive neurons per hemisphere ([2]; A53T+shHbβ::GFAP+KDS12025, Fig. 6s)
O=C(O)c1cc(NCCc2ccc(C(F)(F)F)cc2)ccc1O [HTPEB, 2-hydroxy-5-[2-(4-trifluoromethyl-phenyl)-ethylamino]-benzoic acid, reference compound]	did not increase	–	–	–	–	–	–	–	–	–	–	–	–	–	–	–	–
CNc1ccc(NCCc2ccccc2OC)cc1.Cl [KDS12025, N^1-(2-methoxyphenethyl)-N^4-methylbenzene-1,4-diamine hydrochloride salt]	–	46.92±4.141	61.58±2.401	82.69±4.999	25.28±2.892	10.18±1.460	23.20±2.685	34.98±2.564	55.65±3.378	106.7±3.202	34.18±3.214	5.531±0.9318	20.96±2.68	37.16±3.6	18.5±1.3	42.7±5.05	16.75±2.75
